Patent US20140178315A1, “Topical Compositions Comprising Ionic Fluids” (Arch Chemicals, Inc., priority 2012, published 2014)

Conditions: 3 g salt added to 21 g anhydrous betaine glycolate ionic fluid; heated at 105° C. for 2 hours; remained a viscous fluid after cooling to room temperature

C[N+](C)(C)CC(=O)O.O=c1cc(CO)occ1[O-] [betaine kojiate]
Solubility of betaine kojiate in betaine glycolate ionic fluid (appearance of the mixture): formed a clear fluid
